Laboratory results taken from US20100322928A1, “METHODS OF DIAGNOSING, MONITORING TREATMENT AND TREATING SYSTEMIC LUPUS ERYTHEMATOSUS (SLE)” (Yeda Research and Development Co., Ltd., priority 2007, published 2010).
“Also recorded” adds a separate entry of the source. Marks after values point to notes of the source that are not given here.

Tests used:
[1] = system: spleen cells of SLE-afflicted (NZB×NZW)F1 mice; assay: Real-time RT-PCR of spleen cell mRNA from treated mice; assay type: in vivo; conditions: normalized to β-actin
Description: Real-time RT-PCR. Messenger RNA (mRNA) was analyzed by quantitative real-time RT-PCR using LightCycler (Roche Diagnostics, Mannheim, Germany). Total RNA was isolated from spleen cells pooled from each treatment group (n=2−4) of (NZB×NZW)F1 mice. To prepare cDNA, RNA was reverse-transcribed using Moloney murine leukemia virus (M-MLV) reverse transcriptase (Promega, Madison, Wis.). The resulting cDNA was subjected to real-time RT-PCR according to the manufacturer's instructions. Briefly, the reaction volume (20 μl) contained 3 mM MgCl2, LightCycler hot start DNA SYBR Green I mix (Roche), specific primer pairs, and 5 μl of cDNA. Conditions for PCR were as follows: 10 minutes at 95° C. followed by 35-50 cycles of 15 seconds at 95° C., 15 seconds at 60° C., and 15 seconds at 72° C. Primer sequences (forward and reverse, respectively) were used as follows:
β-actin levels were used for normalization in calculating the expression levels of all other genes.
Real-time RT-PCR analysis. […] These genes were chosen because they reportedly meet at least one of the following three criteria: involvement in SLE, functioning in lymphocytes, and expression in the kidney.

[2] = system: (NZB×NZW)F1 mice with established SLE; assay: ELISA for dsDNA-specific antibodies in sera of treated SLE-afflicted mice; assay type: in vivo; conditions: bled after termination of treatment, s.c. once a week for 10 weeks
Description: (§1) Treatment of (NZB×NZW)F1 mice with edratide. Female mice aged 6-7 months, with established SLE, were divided into groups (8-10 mice per group) and injected subcutaneously (s.c.) with edratide (25-50 μg) or vehicle only (Captisol®) once a week for 10 weeks. Proteinuria and anti-double stranded DNA (dsDNA) autoantibodies were monitored throughout this period.
Enzyme-linked immunosorbent assay (ELISA) for the detection of dsDNA-specific antibodies. Anti-dsDNA-specific antibodies were determined using lambda phage dsDNA as previously described (5).
(§2) Treatment with edratide ameliorates disease manifestations in (NZB×NZW)F1 mice with established SLE. SLE-afflicted female mice, aged 6-7 months, were treated with 10 weekly s.c. injections of edratide or vehicle (Captisol®) and followed for disease manifestations. One week after the treatment ended the mice were killed and their kidneys were evaluated for immune-complex deposits. The results of a representative experiment are presented in Table 1 below, which summarizes some clinical manifestations of the experimental mice.

[3] = system: (NZB×NZW)F1 mice with established SLE; assay: Proteinuria, semi-quantitative Albustix test; assay type: in vivo; conditions: at the end of the experiment; s.c. once a week for 10 weeks
Description: as §1
Proteinuria. Proteinuria was measured by a standard semi-quantitative test, using an Albustix kit (Bayer Diagnostics, Newbury, UK).
as §2

[4] = system: (NZB×NZW)F1 mice with established SLE; assay: Immunohistology of kidney sections for immune-complex deposits; assay type: in vivo; conditions: graded 0 none, 1 low, 2 moderate, 3 high intensity, s.c. once a week for 10 weeks
Description: as §1
Immunohistology. For detection of immune-complex deposits, frozen kidney sections (6 μm) were air-dried and fixed in acetone. Sections were incubated with FITC-conjugated goat anti-mouse IgG (gamma-chain specific; Jackson ImmunoResearch Laboratories, Avondale, Pa.) for 30 minutes and were extensively washed with PBS. The intensity of immune-complex deposits was graded on a […]: 0, no deposits; 1, low-intensity deposits; 2, moderate-intensity deposits; 3, high-intensity deposits.
as §2

[5] = system: splenocytes of SLE-afflicted (NZB×NZW)F1 mice; assay: Affymetrix microarray of RNA from splenocytes of treated mice; assay type: in vivo
Description: Preparation of RNA. Using the RNA/DNA/protein isolation reagent (TRI Reagent®; Molecular Research Center, Cincinnati, Ohio), total RNA was isolated from spleen cells that were pooled (n=2-4 mice) from each experimental group of (NZB×NZW)F1 mice.
Microarray and statistics. RNA samples were hybridized to the mouse genome AffymetrixGeneChip® 430A2 (Affymetrix, Santa Clara, Calif.) array. R packages were used from the Bioconductor project (23). Initially, probe signal summarization, normalization, and background subtraction were performed using Robust Multi-array Averaging (RMA) (24) in affy package with default parameters. Then, the statistical test for differentially expressed genes was performed using Linear Models for Microarray (LIMMA) package (25), which allows for a better variance estimation by calculating the moderated t-statistic using empirical Bayesian techniques. Finally, genes were selected that were statistically significant with P value <0.05 in each biological comparison of interest separately.
Microarray analysis of immunocytes from SLE-afflicted mice. In an attempt to identify gene expression profiles characteristic of SLE and to gain an insight into the modified profile induced by edratide, DNA microarray technology was used on RNA preparations from splenocytes of SLE-afflicted (NZB×NZW)F1 mice treated with edratide or with vehicle only (as described above and in Table 1). […] Three independent in vivo experiments were successfully performed. The RNA obtained in each experiment was hybridized independently on the Affymetrix chips.

[6] = system: SLE-afflicted mice; conditions: cited from earlier work
[7] = system: OX40L; assay: Immunostaining of kidney sections for OX40L expression; assay type: in vivo; conditions: 6 edratide-treated mice; intense staining in all 5 vehicle-treated mice
Description: Immunohistochemistry of kidney sections. Frozen cryostat sections (6 μm) were air-dried and fixed in acetone. For detection of OX40 ligand (OX40L) expression, sections were incubated for 16 hours at room temperature with anti-OX40L monoclonal antibody (M−20; Santa Cruz Biotechnology, Santa Cruz, Calif.). FITC-conjugated mouse anti-goat IgG (Jackson ImmunoResearch Laboratories, West Grove, Pa.) was then added.
Immunostaining of kidneys of (NZB×NZW)F1 mice for OX40L expression. […] Immunohistological analysis of kidney sections from 5 SLE-afflicted vehicle-treated or 6 edratide-treated mice and 3 disease-free young mice was performed.

[8] = SLE-afflicted mice, reference 5

Question: For “GYYWSWIRQPPGKGEEWIG (hCDR (Edratide) synthetic peptide) [synthetic peptide based on the CDR1 of the human monoclonal anti-DNA antibody bearing the common idiotype 16/6Id]”, which “Real-time RT-PCR expression of Tfpi and S100a8 transcripts” value ([1]; genes down-regulated by the disease, FIG. 2B) is on record?
Answer: up-regulated after edratide treatment to levels similar to those in the young controls

Question: And the “Real-time RT-PCR expression of Tnfsf4, Il-5rα, Zbtb20 and Nid1 transcripts” value ([1]; genes up-regulated by the disease, FIG. 2A)?
Answer: reduced the expression of these genes to levels similar to those seen in the young mice

Question: What about the “Anti dsDNA antibodies (OD), Dilution 1:10” value ([2]; serum dilution 1:10, mean ± spread) of the same sequence?
Answer: 1.46 ± 0.32 OD

Question: What about the “Anti dsDNA antibodies (OD), Dilution 1:250” value ([2]; serum dilution 1:250) of the same sequence?
Answer: 0.48 ± 0.21 OD

Question: And the Proteinuria [3]?
Answer: 1.92 ± 0.96 g/L

Question: What about the “Intensity of ICD (immune-complex deposits)” value [4] of the same sequence?
Answer: 1.33 ± 0.36

Question: What about the “Fold difference in expression, edratide-treated (hCDR1) vs SLE mice: 1190003K14Rik” value ([5]; gene 1190003K14Rik, splenocytes) of the same sequence?
Answer: 2.4 fold

Question: And the “Fold difference in expression, edratide-treated vs SLE mice: 2700022B06Rik” value ([5]; gene 2700022B06Rik, not statistically significant)?
Answer: −1.4^† fold

Question: What about the “Fold difference in expression, edratide-treated vs SLE mice: 5830484A20Rik” value ([5]; gene 5830484A20Rik, splenocytes, negative = reduction in signal) of the same sequence?
Answer: −3.0 fold

Question: And the “Fold difference in expression, edratide-treated vs SLE mice: A130040M12Rik” value ([5]; gene A130040M12Rik, not statistically significant)?
Answer: 1.3^† fold

Question: What about the “Fold difference in expression, edratide-treated vs SLE mice: Ass1” value ([5]; gene Ass1, not statistically significant) of the same sequence?
Answer: −1.2^† fold

Question: And the “Fold difference in expression, edratide-treated (hCDR1) vs SLE mice: Camp” value ([5]; gene Camp, splenocytes)?
Answer: 2.8 fold

Question: And the “Fold difference in expression, edratide-treated vs SLE mice: Cd8b1” value ([5]; gene Cd8b1, not statistically significant)?
Answer: 2.0^† fold

Question: And the “Fold difference in expression, edratide-treated (hCDR1) vs SLE mice: Ctsg” value ([5]; gene Ctsg, not statistically significant)?
Answer: 1.2^† fold

Question: And the “Fold difference in expression, edratide-treated vs SLE mice: Cyp11a1” value ([5]; gene Cyp11a1, not statistically significant)?
Answer: −1.8^† fold

Question: And the “Fold difference in expression, edratide-treated vs SLE mice: Dhx9” value ([5]; gene Dhx9, not statistically significant)?
Answer: −1.0^† fold

Question: And the “Fold difference in expression, edratide-treated vs SLE mice: Fzd6” value ([5]; gene Fzd6, splenocytes, negative = reduction in signal)?
Answer: −2.9 fold

Question: And the “Fold difference in expression, edratide-treated vs SLE mice: Gpr132” value ([5]; gene Gpr132, not statistically significant)?
Answer: −1.1^† fold

Question: What about the “Fold difference in expression, edratide-treated vs SLE mice: Hdgfrp3” value ([5]; gene Hdgfrp3, not statistically significant) of the same sequence?
Answer: −1.7^† fold

Question: What about the “Fold difference in expression, edratide-treated vs SLE mice: IL5Rα” value ([5]; gene IL5Rα, splenocytes, negative = reduction in signal) of the same sequence?
Answer: −2.0 fold

Question: What about the “Fold difference in expression, edratide-treated vs SLE mice: LOC 545340” value ([5]; gene LOC 545340, splenocytes, negative = reduction in signal) of the same sequence?
Answer: −2.7 fold

Question: What about the “Fold difference in expression, edratide-treated (hCDR1) vs SLE mice: Lcn” value ([5]; gene Lcn (Lipocalin 2), splenocytes) of the same sequence?
Answer: 2.9 fold

Question: What about the “Fold difference in expression, edratide-treated vs SLE mice: Lmo7” value ([5]; gene Lmo7, splenocytes, negative = reduction in signal) of the same sequence?
Answer: −2.8 fold

Question: What about the “Fold difference in expression, edratide-treated (hCDR1) vs SLE mice: Ltf” value ([5]; gene Ltf, splenocytes) of the same sequence?
Answer: 3.2 fold

Question: What about the “Fold difference in expression, edratide-treated (hCDR1) vs SLE mice: Mpo” value ([5]; gene Mpo, not statistically significant) of the same sequence?
Answer: 1.5^† fold

Question: What about the “Fold difference in expression, edratide-treated (hCDR1) vs SLE mice: Ngp” value ([5]; gene Ngp, splenocytes) of the same sequence?
Answer: 2.5 fold

Question: What about the “Fold difference in expression, edratide-treated vs SLE mice: Nid1” value ([5]; gene Nid1, splenocytes, negative = reduction in signal) of the same sequence?
Answer: −2.4 fold

Question: And the “Fold difference in expression, edratide-treated vs SLE mice: Pigr” value ([5]; gene Pigr, not statistically significant)?
Answer: −1.4^† fold

Question: And the “Fold difference in expression, edratide-treated (hCDR1) vs SLE mice: Prtn3” value ([5]; gene Prtn3, not statistically significant)?
Answer: 1.3^† fold

Question: And the “Fold difference in expression, edratide-treated vs SLE mice: Pstpip2 (second entry)” value ([5]; gene Pstpip2, entry with SLE fold 2.0, not statistically significant)?
Answer: −1.5^† fold

Question: And the “Fold difference in expression, edratide-treated vs SLE mice: Pstpip2 (first entry)” value ([5]; gene Pstpip2, entry with SLE fold 2.2, not statistically significant)?
Answer: −1.9^† fold

Question: What about the “Fold difference in expression, edratide-treated vs SLE mice: Rnf184” value ([5]; gene Rnf184, not statistically significant) of the same sequence?
Answer: 1.2^† fold

Question: What about the “Fold difference in expression, edratide-treated (hCDR1) vs SLE mice: S100a8” value ([5]; gene S100a8, splenocytes) of the same sequence?
Answer: 2.4 fold

Question: And the “Fold difference in expression, edratide-treated (hCDR1) vs SLE mice: S100a9” value ([5]; gene S100a9, splenocytes)?
Answer: 2.4 fold

Question: And the “Fold difference in expression, edratide-treated (hCDR1) vs SLE mice: Slfn” value ([5]; gene Slfn (Schlafen 4), splenocytes)?
Answer: 2.7 fold

Question: What about the “Fold difference in expression, edratide-treated (hCDR1) vs SLE mice: Tfpi” value ([5]; gene Tfpi, splenocytes) of the same sequence?
Answer: 2.2 fold

Question: What about the “Fold difference in expression, edratide-treated (hCDR1) vs SLE mice: Thbs1” value ([5]; gene Thbs1, not statistically significant) of the same sequence?
Answer: 1.5^† fold

Question: What about the “Fold difference in expression, edratide-treated vs SLE mice: Tnfsf4” value ([5]; gene Tnfsf4, splenocytes, negative = reduction in signal) of the same sequence?
Answer: −2.5 fold

Question: What about the “Fold difference in expression, edratide-treated vs SLE mice: Zbtb20” value ([5]; gene Zbtb20, splenocytes, negative = reduction in signal) of the same sequence?
Answer: −2.2 fold

Question: What about the “Fold difference in expression, edratide-treated vs SLE mice: Unknown gene” value ([5]; gene title and symbol Unknown, SLE fold 1.9) of the same sequence?
Answer: −1.7 fold

Question: And the “Number of genes down-regulated 2-fold or more in diseased mice that were up-regulated after treatment” value ([5]; of the 12 identified genes)?
Answer: 9 (75%) genes

Question: And the “Number of genes up-regulated 2-fold or more in SLE-afflicted mice that were significantly down-regulated after treatment” value ([5]; of the 15 genes with an identified product)?
Answer: 9 (60%) genes

Question: And the “Number of disease-altered genes affected by edratide and restored to levels similar to disease-free controls” value ([5]; of the 348 genes with altered expression in vehicle-treated diseased mice (22%))?
Answer: 76 genes

Question: And the Kidney disease ([6]; (NZB×NZW)F1 mice, WO 02/067848)?
Answer: reduced kidney disease

Question: And the “Immunosuppressive cytokine TGFβ” value [6, 8]?
Answer: up-regulated

Question: And the “Secretion and expression of pathogenic cytokines (IFNγ, IL-1β, TNFα, IL-10)” value [6, 8]?
Answer: reduced secretion and expression

Question: What about the “OX40L expression in kidney sections (immunostaining)” value [7] of the same sequence?
Answer: very weak (in 2 mice and 1 mouse, respectively) or undetectable (in 4 and 2 mice, respectively); also recorded: down-regulated
